Data taken from patent US5747477A, “Azo derivatives of 5-aminosalicylic acid” (priority 1995, dated 1998).
Read-outs that look alike come from different tables or passages of the source.

How the values were obtained:
[1] = after absorption from the colon; cited from earlier work
ulcerative colitis = conditions: cited from earlier work; for active moiety in ulcerative colitis: Azad Khan et al., Lancet 1977
[2] = tested on: platelet aggregation induced by PAF; experiment: Test 1-Inhibition of platelet aggregation induced by PAF (C18-PAF, 15 nM); assay type: cell-based, male New Zealand rabbits; conditions: rabbit platelet rich plasma, 15 nM C18-PAF, read-out: IC50 (concentration of drug required to inhibit platelet aggregatory response by 50%)
Experimental: Test 1-Inhibition of platelet aggregation induced by PAF.
Platelet rich plasma (PRP) was prepared by centrifuging the blood at 250xg for 10 min. at 4° C. PRP was diluted with platelet-poor plasma (PPP) obtained by further centrifuging at 3000xg for 10 min. The platelet count was adjusted to 3×10^5 cells/mm^3.

[3] = tested on: PAF-induced hypotension in normotensive rats; experiment: Test 2- Inhibition of PAF-induced hypotension in normotensive rats; assay type: in vivo, Male Sprague-Dawley rats; conditions: intravenous, 3 min. before PAF (0.5 μg/Kg); for ED50: Rattus norvegicus, 0.05 h, read-out: ID50 (dose of test compound required to inhibit hypotension by 50%)
Experimental: Test 2- Inhibition of PAF-induced hypotension in normotensive rats.
Male Sprague-Dawley rats, weighing 180-220 g, were anesthetized with sodium pentobarbital (50 mg/Kg i.p.). Blood pressure was recorded from the left carotid artery using a Statham pressure transducer coupled to a Beckman R611 recorder. Right and left femoral veins were catheterized to inject test compounds and PAF (0.5 μg/Kg). Test compounds were administered by intravenous injection (1 mL/Kg, dissolved in saline) 3 min. before PAF.
Blood pressure was monitored and percent inhibition of PAF-induced hypotension with respect to controls was calculated.

Compound | IC50 ([2]; Oryctolagus cuniculus) [nM] | ED50 [3] [mg/kg] | also measured
Nc1ccc(S(=O)(=O)Nc2ccccn2)cc1 [Sulfapyridine, sulfapyridine] |  |  | metabolism and excretion [1]: metabolised and excreted in the urine; active moiety in ulcerative colitis (ulcerative colitis): acts only as a carrier; side effects of sulfasalazine ascribed to the moiety (ulcerative colitis; Das et al., New Engl. J. Med. 1973): Most of the side effects of sulfasalazine have been ascribed to the sulfapyridine moiety
Cc1nc2cnccc2n1CC1CCN(C(=O)CC(C)(C)c2ccc(N)cc2)CC1 [A, 1-[[1-[3-(4-Aminophenyl)-3-methylbutanoyl]-4-piperidyl]methyl]-1H-2-methylimidazo[4,5-c]pyridine] | 19 | 0.099 | 
CCOC[C@H](CC(C)C)N(Cc1ccc(N)cc1)S(=O)(=O)c1ccc(Cn2c(C)nc3cnccc32)cc1 [G, N-(4-Aminobenzyl)-N-[(S)-1-isobutyl-2-ethoxyethyl]-4-(1H-2-methylimidazo[4,5-c]pyridylmethyl)phenylsulfonamide] | 16 | 0.14 | 
Cc1nc2cnccc2n1CC1CCN(C(=O)/C=C(\c2ccccc2)c2ccc(N)cc2)CC1 [C, trans-1-[[1-[3-(4-Aminophenyl)-3-phenylpropenoyl]-4-piperidyl]methyl]-1H-2-methylimidazo[4,5-c]pyridine] |  |  | IC50 [2]: 5 nM; ID50 (dose of test compound required to inhibit hypotension by 50%) [3]: 0.01 to 0.025 mg/kg
CCOC(=O)[C@H](CC(C)C)N(Cc1ccc(N)cc1)S(=O)(=O)c1ccc(Cn2c(C)nc3cnccc32)cc1 [F, N-(4-Aminobenzyl)-N-[4-(1H-2-methylimidazo[4,5-c]pyridylmethyl)-phenylsulfonyl]-L-leucine ethyl ester] | 12 | 0.033 | 
Cc1nc2cnccc2n1CC1CCN(C(=O)/C=C(/c2ccccc2)c2ccc(N)cc2)CC1 [B, cis-1-[[1-[3-(4-Aminophenyl)-3-phenylpropenoyl]-4-piperidyl]methyl]-1H-2-methylimidazo[4,5-c]pyridine] |  |  | IC50 [2]: 18 nM; ID50 (dose of test compound required to inhibit hypotension by 50%) [3]: 0.029 mg/kg
Nc1ccc(O)c(C(=O)O)c1 [Compound 5-ASA, 5-aminosalicylic acid] |  |  | active moiety in ulcerative colitis (ulcerative colitis): in ulcerative colitis the active moiety is 5-ASA
CCOC(=O)[C@H](CC(C)C)N(C(=O)c1ccc(N)cc1)S(=O)(=O)c1ccc(Cn2c(C)nc3cnccc32)cc1 [E, N-(4-Aminobenzoyl)-N-[4-(1H-2-methylimidazo[4,5-c]pyridylmethyl)phenylsulfonyl]-L-leucine ethyl ester] | 30 | 0.15 | 
Cc1nc2cnccc2n1CC1CCN(C(=O)CN(c2ccccc2)S(=O)(=O)c2ccc(N)cc2)CC1 [D] | 75 | 0.088 | 
